Measurements published in article PMC9071491, “Fragment screening and structural analyses highlight the ATP-assisted ligand binding for inhibitor discovery against type 1 methionyl-tRNA synthetase” (Nucleic Acids Research, 2022).
Read-outs that look alike come from different tables or passages of the source.

How the values were obtained:
SaMetRS [1] = biological target: T1, SaMetRS (Staphylococcus aureus, UniProt P67578); experiment: pretransfer editing assay (malachite green); type: biochemical
T1 construct: full-length SaMetRS (SaMetRS-FL) (residues 1–657) was expressed and purified in the same manner; made in house; host or cells: E. coli BL21 (DE3)
Experimental: A pretransfer editing assay was employed to evaluate the enzymatic activity of MetRS and the inhibitory activity of fragments to this enzyme. MetRS uses ATP to misactivate the noncognate L-norleucine (L-Norleu) to produce norleucyl adenylate and pyrophosphate (PPi). Norleucyl adenylate was hydrolyzed in the active site through pretransfer editing, and PPi was hydrolyzed by pyrophosphatase (PPiase). The pretransfer editing activity of MetRS was evaluated by measuring phosphate ion (Pi) production using a malachite green assay ([40],[41]). The assays were performed in 80 μl reaction mixtures consisting of 160 nM SaMetRS-FL or SaMetRS-dC or HcMetRS-dN or HcMetRS-dN/C, 100 μM ATP, 20 mM L-Norleu and 50 μg/ml PPiase in reaction buffer (30 mM HEPES pH 7.5, 150 mM NaCl, 30 mM KCl, 40 mM MgCl2, 1 mM DTT) at room temperature ([42]). The pyrophosphates released from the pretransfer editing reaction were decomposed into phosphates by PPiase. Then, 20 μl of malachite green reagent (2.45 M sulfuric acid, 0.1% w/v malachite green, 1.5% w/v ammonium molybdate tetrahydrate, and 0.2% v/v Tween 20) was added to each reaction, and the absorbance at 620 nm was recorded using a Synergy H1 microplate reader.
To measure the inhibitory activity of compounds against SaMetRS, the reactions of an 80 μl mixture consisting of 160 nM SaMetRS-FL (or HcMetRS-dN), 100 μM ATP, 20 mM L-norleucine, 50 μg/ml PPiase and 1 mM fragment (or inhibitor at different concentrations) in reaction buffer were incubated at room temperature for 30 min. Then, 20 μl of malachite green reagent was added to each reaction, and absorbance at 620 nm was recorded. The absorbance at 620 nm of the reaction without adding a compound (fragment or inhibitor) was A1, the absorbance of the reaction without adding MetRS was A0, and the absorbance of the reaction with adding a compound (fragment or inhibitor) was AC. The inhibitory rates of compounds on enzyme activity = (A1 – AC)/(A1 – A0) ×100%. For compounds P80, P21 and REP8839, the inhibitory rates were measured at various concentrations, and the data were fitted in GraphPad Prism 8 using the ‘log[inhibitor] versus response’ equation to calculate the IC50 values.
The inhibitory rates of these fragments against SaMetRS were then tested by a pretransfer editing assay. In the assay, MetRS used ATP to misactivate noncognate L-norleucine (L-Norleu) to produce norleucyl adenylate and PPi. The norleucyl adenylate was then quickly hydrolyzed (or ‘edited’) by MetRS in a tRNA-independent manner ([53–55]). In addition, PPi is hydrolyzed by pyrophosphatase, and phosphate production reflects the activity of MetRS in L-Norleu misactivation and pretransfer editing.

SaMetRS [2] = biological target: T1, SaMetRS; experiment: biochemical; type: binding
Experimental: Ligand binding usually stabilizes the protein during the thermal denaturation process, and a tighter binder causes a larger positive shift in the protein melting temperature (Tm) ([38]). The binding of ligands to SaMetRS was evaluated by the fluorescence-based thermal shift assay as described ([39]). Briefly, mixtures with a final volume of 20 μl that contained 4 μg of SaMetRS-FL, 4 × SYPRO orange fluorescence dye (Sigma-Aldrich) and different ligands (10 μM REP8839, 5 mM L-Met, 5 mM ATP, or 1 mM fragments) in TSA buffer (100 mM Tris pH 8.0, 150 mM NaCl) were prepared in 96-well plates. The mixtures were incubated at 25°C for 10 min and then heated from 25°C to 95°C at a rate of 1°C/min. The fluorescence intensity was recorded every 20 s by using a StepOnePlus Real-Time PCR instrument (Life Technologies). The melting curves, using the fluorescence signal as the ordinate and the temperature as the abscissa, were fitted by using StepOne™ software v2.3 to obtain the melting temperature (Tm) of the protein. Triplicate assays were performed, and the average Tm values were used. The thermal stabilization of SaMetRS that was caused by a ligand (a fragment, substrate or inhibitor) was termed ΔTm, and it was calculated by subtracting the Tm of SaMetRS without the ligand from the Tm of SaMetRS supplemented with the ligand as follows:
Fragment screening is a fast-growing strategy for designing drugs with novel scaffolds as well as for identifying new druggable sites ([51],[52]). A total of 1049 fragments or low molecular weight natural products were screened by using TSA to search for new binders to SaMetRS. Considering the potential beneficial effect of ATP on ligand binding to SaMetRS, a parallel experiment was carried out using SaMetRS, which was saturated with 5 mM ATP. Fragments were diluted to a final concentration of 1.0 mM. The Tm of apo or ATP-bound SaMetRS without adding fragments was used as a blank control, and REP8839 was used as a positive control. We considered fragments that could increase the Tm value of SaMetRS by more than 1.0°C (ΔTm > 1.0°C) as positive hits (Figure 4B).

SaMetRS [3] = biological target: T1, SaMetRS; experiment: isothermal titration calorimetry (ITC) assay; type: binding
Experimental: The affinities of ligands to SaMetRS were measured by using a MicroCal PEAQ-ITC microcalorimeter. […] The interval between two injections was 150 s. The disassociation constants (Kd) were determined by fitting the calorimetric data to a one-site binding model by using MicroCal PEAQ-ITC analysis software.

HcMetRS = biological target: T2, HcMetRS (Homo sapiens, UniProt P56192); experiment: tRNA-dependent ATP consumption assay; type: biochemical; conditions: HcMetRS-dN, even at high concentrations
T2 construct: a truncated HcMetRS without the N-terminal part (HcMetRS-dN) (residues 221–900); His6-SUMO (N, cleaved yes); made in house; host or cells: E. coli BL21 (DE3)
T2 sequence (P56192 221-900): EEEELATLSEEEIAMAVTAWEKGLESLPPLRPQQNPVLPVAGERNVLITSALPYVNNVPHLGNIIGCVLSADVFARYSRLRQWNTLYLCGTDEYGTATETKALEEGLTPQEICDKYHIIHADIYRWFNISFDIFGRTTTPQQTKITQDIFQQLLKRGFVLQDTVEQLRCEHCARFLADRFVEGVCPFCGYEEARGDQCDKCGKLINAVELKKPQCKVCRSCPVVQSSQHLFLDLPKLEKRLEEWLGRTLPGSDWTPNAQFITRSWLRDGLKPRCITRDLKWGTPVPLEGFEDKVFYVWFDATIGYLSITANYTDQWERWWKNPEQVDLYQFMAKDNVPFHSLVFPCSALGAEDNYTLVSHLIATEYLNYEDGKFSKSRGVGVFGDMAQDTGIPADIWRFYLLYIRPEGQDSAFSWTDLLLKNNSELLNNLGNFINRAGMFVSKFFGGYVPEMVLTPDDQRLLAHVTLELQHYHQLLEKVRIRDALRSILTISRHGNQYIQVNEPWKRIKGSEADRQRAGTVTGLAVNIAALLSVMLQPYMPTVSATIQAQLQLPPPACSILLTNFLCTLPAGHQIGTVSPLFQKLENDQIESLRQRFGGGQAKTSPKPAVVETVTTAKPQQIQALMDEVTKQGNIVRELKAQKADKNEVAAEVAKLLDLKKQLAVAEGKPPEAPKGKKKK
Experimental: (§1) The inhibitory activity of the compounds against the tRNA aminoacylation reaction of MetRS was evaluated by employing an ATP consumption assay ([43],[44]). In brief, 10 μl reactions consisting of 50 nM SaMetRS-FL or 100 nM HcMetRS-dN, 4 μM ATP, 500 μM L-Met, 0.5 mg/ml E. coli total tRNA in reaction buffer (30 mM HEPES pH 7.5, 150 mM NaCl, 30 mM KCl, 40 mM MgCl2, 0.1% BSA and 1 mM DTT) and compounds (P80, P21 and REP8839) at various concentrations were prepared and incubated at room temperature for 30 min. The reactions were then stopped by adding 10 μl of Kinase-Glo™ Reagent (Promega) and incubated at room temperature for 15 min. The luminescence, which reflects the concentration of the remaining ATP, was read on a Synergy H1 microplate reader (BioTek). The luminescence of the reaction without adding a compound was Lum1, the absorbance of the reaction without adding MetRS was Lum0, and the luminescence of the reaction with the added compound was LumC. The inhibitory rates of a compound on enzyme activity = (LumC – Lum1)/(Lum0 – Lum1) × 100%. The data were fitted in GraphPad Prism 8 with the ‘log[compound] versus response’ equation to calculate the IC50 values.

SaMetRS [4] = biological target: T1, SaMetRS; experiment: tRNA-dependent ATP consumption assay; type: biochemical
Experimental: as §1

[5] = read-out: ΔTm (°C) Tm(Frg)-Tm(apo)
[6] = read-out: ΔTm (°C) Tm(Frg+ATP)-Tm(ATP)

T1 sequence (P67578 whole entry, the tested form may be a part): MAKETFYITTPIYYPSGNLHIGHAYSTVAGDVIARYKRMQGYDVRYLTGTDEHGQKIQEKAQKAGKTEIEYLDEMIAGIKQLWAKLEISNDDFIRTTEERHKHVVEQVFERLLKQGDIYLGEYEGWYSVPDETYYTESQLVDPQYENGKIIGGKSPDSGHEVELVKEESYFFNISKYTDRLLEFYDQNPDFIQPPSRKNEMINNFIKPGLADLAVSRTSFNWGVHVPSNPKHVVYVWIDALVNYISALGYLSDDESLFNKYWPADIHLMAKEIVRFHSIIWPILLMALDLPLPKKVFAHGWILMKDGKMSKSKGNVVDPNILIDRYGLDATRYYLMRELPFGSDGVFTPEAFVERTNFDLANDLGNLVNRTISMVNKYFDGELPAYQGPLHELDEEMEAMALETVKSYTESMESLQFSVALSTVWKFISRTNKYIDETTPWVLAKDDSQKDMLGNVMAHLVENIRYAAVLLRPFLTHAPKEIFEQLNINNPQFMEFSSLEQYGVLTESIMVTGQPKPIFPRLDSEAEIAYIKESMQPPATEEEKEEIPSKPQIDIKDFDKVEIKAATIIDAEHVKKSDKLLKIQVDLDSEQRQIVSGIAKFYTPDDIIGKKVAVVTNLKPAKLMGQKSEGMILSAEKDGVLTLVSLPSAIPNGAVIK

| SMILES | inhibition at 1000 µM (SaMetRS [1]; read-out: Inhibitory rate (%)) | ΔTm at 1000 µM (SaMetRS [2]; [5]) | ΔTm at 1000 µM (SaMetRS [2]; [6]) | further results |
| --- | --- | --- | --- | --- |
| O=[N+]([O-])c1ccc(O)c(O)c1 [A6] | < 20% | 1.1 °C | 1.2 °C |  |
| Nc1ncnc2c1ncn2[C@@H]1O[C@H](COP(=O)(O)OP(=O)(O)OP(=O)(O)O)[C@@H](O)[C@H]1O [ATP] |  |  |  | fold more potent Kd of ATP with M3-88 premixed versus apo protein (SaMetRS [3]; SaMetRS premixed with M3-88 vs apo): approximately 4 fold; Kd (SaMetRS [3]; apo protein, 25°C, read-out: Kd, ATP to SaMetRS): 52 ± 6.7 µM; Kd (SaMetRS [3]; read-out: Kd, ATP to SaMetRS saturated with M3-88, SaMetRS preincubated with 5 mM M3-88, 25°C): 14.1 ± 0.7 µM |
| N[C@@H]1C[C@@H]1c1ccccc1 [B54] | < 20% |  |  |  |
| NCc1c[nH]c2ccccc12 [B63] | 38.2 ± 3.5% | 0.8 °C | 1.7 °C |  |
| O=[N+]([O-])c1ccc2[nH]ncc2c1 [B128] | 30.4 ± 1.9% | 1.3 °C | 2.1 °C |  |
| Nc1nc2ccccc2[nH]1 [M1-68] | < 20% | 0.1 °C | 1.3 °C |  |
| NC1Cc2ccccc2C1 [M2-80] | < 20% | -0.1 °C | 2.5 °C |  |
| NCCNc1cccc2ccccc12 [M2-293] | 67.3 ± 1.1% |  | 1.3 °C |  |
| Clc1cn2ccsc2n1 [M3-146] | < 20% | -0.1 °C | 1.8 °C |  |
| CNC(=O)c1ccc2c(c1)nc(-c1ccc(Br)c(O)c1)n2C(CNC(=O)OCc1ccccc1)c1ccc(OC)c(OC)c1 (centres unmarked) [P21] |  |  |  | IC50 (SaMetRS [1]): 0.428 ± 0.053 µM; inhibition of HcMetRS (HcMetRS): did not significantly inhibit; IC50 (SaMetRS [4]; 50 nM SaMetRS-FL, 4 μM ATP, 500 μM L-Met, read-out: IC50, ATP consumption assay): 3.11 ± 0.48 µM |
| CNC(=O)c1ccc2c(c1)nc(-c1ccc(Br)c(O)c1)n2C(CNC(=O)COc1ccccc1C(C)(C)C)c1ccc(OC)c(OC)c1 (centres unmarked) [P80] |  |  |  | IC50 (SaMetRS [1]): 0.0946 ± 0.0067 µM; inhibition of HcMetRS (HcMetRS): did not significantly inhibit; IC50 (SaMetRS [4]): 0.223 ± 0.0123 µM |
| C=C(F)c1sc(CNCCCNc2cc(O)c3ccccc3n2)c(C)c1Br [REP8839, reference compound] |  |  |  | inhibition at 10 µM (SaMetRS [1]; read-out: Inhibitory rate (%)): > 99%; ΔTm at 10 µM (SaMetRS [2]; [5]): 11.8 °C; ΔTm at 10 µM (SaMetRS [2]; [6]): 17.5 °C |
| CC(C)(C)Sc1cccnc1N [T2-15] | 65.3 ± 3.1% | 2.5 °C | 2.5 °C | Kd (SaMetRS [3]; SaMetRS apo, without ATP, 25°C, read-out: Kd, fragment to SaMetRS alone): 78.7 ± 7.1 µM; Kd (SaMetRS [3]; SaMetRS preincubated with 5 mM ATP, 25°C, read-out: Kd, fragment to SaMetRS saturated with ATP): 54.6 ± 2.6 µM |
